# Patent US20100168100A1, “QUINOLINE DERIVATIVES AS P13 KINASE INHIBITORS” (SMITHKLINE BEECHAM CORPORATION, priority 2007, published 2010)
# Legend:
# [1] = target: T1, PI3Kα (Homo sapiens, UniProt P42336); assay: PI3K Alpha Leadseeker SPA Assay; type: biochemical; settings: in at least one experimental run; read-out: IC50 against PI3Kα
# T1 construct: His
# Protocol: PI3K Alpha Leadseeker SPA Assay
# Compounds of the present invention were tested according to the following assays and found as inhibitors of PI3 kinases, particularly PI3Kα. The exemplified compounds were tested and found active against PI3Kα. The IC50's ranged from about 1 nM to 10 μM.
# SPA imaging beads are microspheres containing scintillant which emit light in the red region of the visible spectrum. As a result, these beads are ideally suited to use with a CCD imager such as the Viewlux. The Leadseeker beads used in this system are polystyrene beads that have been coupled with polyethyleneimine. When added to the assay mixture, the beads absorb both the substrate (PIP2) and product (PIP3). Adsorbed P^33-PIP3 will cause an increase in signal, measured as ADUs (analog to digital units). This protocol details the use of the PEI-PS Leadseeker beads for assays using His-p110/p85 PI3K alpha.
# Solid compounds are typically plated with 0.1 μl of 100% DMSO in all wells (except column 6 and 18) of a 384-well, flat bottom, low volume plate (Greiner 784075). The compounds are serially diluted (3-fold in 100% DMSO) across the plate from column 1 to column 12 and column 13 to column 24 and leave column 6 and 18 containing only DMSO to yield 11 concentrations for each test compound.
# The assay buffer contains MOPS (pH 6.5), CHAPS, and DTT. PI3K alpha and PIP2 (L-alpha-D-myo-Phosphatidylinositol 4,5-bisphosphate [PI(4,5)P2]3-O-phospho linked, D(+)-sn-1,2-di-O-octanoylglyceryl, CellSignals #901) are mixed and incubated in the plate with compound for 30 min prior to starting the reaction with the addition of P^33-ATP and MgCl2 (reagents added using Zoom). Enzyme-free wells (column 18) are typically done to determine the low control. PEI-PS Leadseeker beads in PBS/EDTA/CHAPS are added (by Multidrop) to quench the reaction, and the plates are allowed to incubate for at least one hour (typically overnight) before centrifugation. The signal is determined using a Viewlux detector and is then imported into curve fitting software (Activity Base) for construction of concentration response curves. The percent inhibition of activity is calculated relative to high controls (C1, 0.1 μl DMSO in column 6, rows A-P)) and low controls (C2, 5 μl of 40 uM PIP2 in buffer in column 18, rows A-P) using, 100*(1-(U1-C2)/(C1-C2)). The concentration of test compound yielding 50% inhibition is determined using the equation, y=((Vmax*x)/(K+x))+Y2, where “K” is equal to the IC50. The IC50 values are converted to pIC50 values, i.e., −log IC50 in Molar concentration.
# [2] = target: CK2 protein kinase (Homo sapiens, UniProt P68400); settings: cited from earlier work
# Chain of CK2 protein kinase (P68400 whole entry): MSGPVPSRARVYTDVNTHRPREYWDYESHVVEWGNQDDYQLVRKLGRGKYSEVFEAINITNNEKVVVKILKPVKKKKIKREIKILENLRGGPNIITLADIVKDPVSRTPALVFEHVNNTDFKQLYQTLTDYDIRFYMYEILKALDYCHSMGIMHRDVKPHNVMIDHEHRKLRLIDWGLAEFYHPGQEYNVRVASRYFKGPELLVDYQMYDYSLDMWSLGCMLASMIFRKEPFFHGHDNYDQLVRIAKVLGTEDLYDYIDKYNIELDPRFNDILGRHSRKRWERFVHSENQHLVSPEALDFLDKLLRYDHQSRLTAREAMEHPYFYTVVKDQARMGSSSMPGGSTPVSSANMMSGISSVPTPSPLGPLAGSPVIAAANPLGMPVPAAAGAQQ
# T1 sequence (P42336 whole entry): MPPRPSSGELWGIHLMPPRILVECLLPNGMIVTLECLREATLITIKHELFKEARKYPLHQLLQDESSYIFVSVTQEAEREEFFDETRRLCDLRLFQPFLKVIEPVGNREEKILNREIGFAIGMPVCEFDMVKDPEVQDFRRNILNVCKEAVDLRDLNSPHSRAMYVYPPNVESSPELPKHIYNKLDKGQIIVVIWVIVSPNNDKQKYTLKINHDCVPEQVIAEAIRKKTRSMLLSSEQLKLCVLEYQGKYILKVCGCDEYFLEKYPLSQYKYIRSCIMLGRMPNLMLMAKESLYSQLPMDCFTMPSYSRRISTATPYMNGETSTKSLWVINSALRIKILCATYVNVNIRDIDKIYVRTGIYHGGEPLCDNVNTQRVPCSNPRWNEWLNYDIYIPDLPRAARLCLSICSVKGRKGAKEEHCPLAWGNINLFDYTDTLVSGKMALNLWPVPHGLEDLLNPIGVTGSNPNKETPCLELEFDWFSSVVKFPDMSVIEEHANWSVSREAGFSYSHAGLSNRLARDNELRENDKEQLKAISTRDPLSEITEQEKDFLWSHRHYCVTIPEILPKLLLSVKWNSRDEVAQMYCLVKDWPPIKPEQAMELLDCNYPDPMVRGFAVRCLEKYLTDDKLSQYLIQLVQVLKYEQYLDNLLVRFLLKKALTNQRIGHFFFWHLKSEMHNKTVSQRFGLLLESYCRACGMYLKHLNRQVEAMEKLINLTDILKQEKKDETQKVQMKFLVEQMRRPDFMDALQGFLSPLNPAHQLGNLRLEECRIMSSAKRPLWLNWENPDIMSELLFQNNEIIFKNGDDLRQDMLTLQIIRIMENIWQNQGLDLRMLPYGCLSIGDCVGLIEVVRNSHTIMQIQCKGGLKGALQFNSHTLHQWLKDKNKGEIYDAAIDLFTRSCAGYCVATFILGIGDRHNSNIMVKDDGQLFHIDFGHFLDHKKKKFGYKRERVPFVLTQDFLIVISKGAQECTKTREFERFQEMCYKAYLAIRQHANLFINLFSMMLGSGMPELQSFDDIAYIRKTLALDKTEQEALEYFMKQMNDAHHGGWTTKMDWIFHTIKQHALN
# T1 sequence (P27986 whole entry partner): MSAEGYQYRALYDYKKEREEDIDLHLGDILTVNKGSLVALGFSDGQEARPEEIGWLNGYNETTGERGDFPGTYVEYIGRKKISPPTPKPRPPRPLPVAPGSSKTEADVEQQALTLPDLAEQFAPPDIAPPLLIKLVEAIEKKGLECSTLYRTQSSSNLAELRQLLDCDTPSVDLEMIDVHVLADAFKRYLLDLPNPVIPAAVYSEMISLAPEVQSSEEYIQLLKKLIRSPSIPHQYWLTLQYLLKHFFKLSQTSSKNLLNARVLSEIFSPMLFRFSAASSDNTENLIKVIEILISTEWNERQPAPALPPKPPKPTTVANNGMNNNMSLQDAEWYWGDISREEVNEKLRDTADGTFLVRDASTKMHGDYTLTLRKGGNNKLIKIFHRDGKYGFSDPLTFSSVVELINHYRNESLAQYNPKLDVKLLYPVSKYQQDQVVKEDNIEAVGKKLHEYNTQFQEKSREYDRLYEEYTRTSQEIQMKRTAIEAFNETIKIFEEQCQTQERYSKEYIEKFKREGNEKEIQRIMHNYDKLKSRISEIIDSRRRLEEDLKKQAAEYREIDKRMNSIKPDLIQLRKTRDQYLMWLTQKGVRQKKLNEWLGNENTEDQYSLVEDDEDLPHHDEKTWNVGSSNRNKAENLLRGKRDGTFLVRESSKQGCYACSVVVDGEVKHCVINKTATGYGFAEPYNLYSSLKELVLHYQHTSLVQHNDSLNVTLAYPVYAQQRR
SMILES,IC50 [1] [nM],IC50 [2] [µM]
c1cc(-c2ccnc3ccc(-c4nc5ncncc5[nH]4)cc23)ccn1 [Example 224],1000,–
NC(=O)Cn1cc(-c2ccnc3ccc(-c4cncc(S(=O)(=O)Nc5ccc(F)cc5F)c4)cc23)cn1 [Example 263],7.9,–
COc1ncc(-c2ccc3nccc(C4CCCC4)c3c2)cc1NS(=O)(=O)c1ccccc1 [Example 289],2.5,–
O=c1cc(N2CCOCC2)oc2c(-c3ccccc3)cccc12 [LY294002],–,5 to 10

# Further lines, with some results ahead:
IC50 [1] [nM],SMILES,IC50 [2] [µM]
316,CC1=Nc2ccc(-c3ccc4nccc(-c5ccncc5)c4c3)cc2S(=O)(=O)N1 [Example 154],–
79,c1cc(-c2ccnc3ccc(-c4ccc5[nH]ncc5c4)cc23)ccn1 [Example 156],–
1.6,O=S(=O)(Nc1cc(-c2ccc3nccc(-c4ccncc4)c3c2)c[n+]([O-])c1Cl)c1ccccc1 [Example 249],–
0.8,Cc1ccccc1S(=O)(=O)Nc1cc(-c2ccc3nccc(-c4ccncc4)c3c2)cnc1Cl [Example 252],–
